Measured values published in ChEMBL document CHEMBL5291721, “A preclinical secondary pharmacology resource illuminates target-adverse drug reaction associations of marketed drugs” (Nat Commun, 2023).

Assays:
[1] = target: cGMP-inhibited 3',5'-cyclic phosphodiesterase 3A (Homo sapiens, UniProt Q14432); type: functional
B2 bradykinin receptor = target: T1, B2 bradykinin receptor (Homo sapiens, UniProt P30411)
T1 sequence (P30411 whole entry): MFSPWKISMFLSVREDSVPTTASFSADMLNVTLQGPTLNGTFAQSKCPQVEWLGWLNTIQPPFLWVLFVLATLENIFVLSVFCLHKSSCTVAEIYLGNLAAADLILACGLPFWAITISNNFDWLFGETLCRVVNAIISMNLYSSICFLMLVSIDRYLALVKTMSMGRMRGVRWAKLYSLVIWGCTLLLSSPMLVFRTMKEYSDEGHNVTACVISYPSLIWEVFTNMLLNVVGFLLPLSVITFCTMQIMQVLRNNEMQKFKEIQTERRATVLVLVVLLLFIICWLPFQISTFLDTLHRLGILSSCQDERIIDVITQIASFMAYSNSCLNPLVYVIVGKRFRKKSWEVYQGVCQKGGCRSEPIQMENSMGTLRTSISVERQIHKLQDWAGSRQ

[2] = target: T2, Alpha-2A adrenergic receptor (Homo sapiens, UniProt P08913); type: functional, cell-based
T2 sequence (P08913 whole entry): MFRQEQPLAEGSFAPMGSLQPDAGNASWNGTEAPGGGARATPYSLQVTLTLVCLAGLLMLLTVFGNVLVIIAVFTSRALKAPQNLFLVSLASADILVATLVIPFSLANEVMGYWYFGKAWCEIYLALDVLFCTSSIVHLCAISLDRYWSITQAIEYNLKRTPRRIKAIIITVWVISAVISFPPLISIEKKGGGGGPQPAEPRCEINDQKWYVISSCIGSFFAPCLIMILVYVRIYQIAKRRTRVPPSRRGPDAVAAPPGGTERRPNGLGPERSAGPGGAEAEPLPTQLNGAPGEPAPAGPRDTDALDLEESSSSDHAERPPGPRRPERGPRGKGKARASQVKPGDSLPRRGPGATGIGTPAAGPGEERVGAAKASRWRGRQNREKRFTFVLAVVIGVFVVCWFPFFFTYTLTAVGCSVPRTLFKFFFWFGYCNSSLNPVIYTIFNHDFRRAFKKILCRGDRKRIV

Melanocortin receptor 4 = Melanocortin receptor 4 (Homo sapiens, UniProt P32245)
Chain of Melanocortin receptor 4 (P32245 whole entry): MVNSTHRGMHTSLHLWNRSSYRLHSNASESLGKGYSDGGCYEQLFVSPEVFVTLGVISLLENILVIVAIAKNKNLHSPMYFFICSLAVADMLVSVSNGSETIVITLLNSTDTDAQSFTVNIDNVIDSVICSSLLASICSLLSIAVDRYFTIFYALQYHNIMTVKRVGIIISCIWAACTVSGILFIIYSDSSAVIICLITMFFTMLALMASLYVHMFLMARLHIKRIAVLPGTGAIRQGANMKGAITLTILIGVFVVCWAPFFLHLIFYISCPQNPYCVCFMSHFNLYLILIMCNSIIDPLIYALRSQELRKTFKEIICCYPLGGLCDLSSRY

Histamine H2 receptor = Histamine H2 receptor (Homo sapiens, UniProt P25021); type: functional, cell-based
Chain of Histamine H2 receptor (P25021 whole entry): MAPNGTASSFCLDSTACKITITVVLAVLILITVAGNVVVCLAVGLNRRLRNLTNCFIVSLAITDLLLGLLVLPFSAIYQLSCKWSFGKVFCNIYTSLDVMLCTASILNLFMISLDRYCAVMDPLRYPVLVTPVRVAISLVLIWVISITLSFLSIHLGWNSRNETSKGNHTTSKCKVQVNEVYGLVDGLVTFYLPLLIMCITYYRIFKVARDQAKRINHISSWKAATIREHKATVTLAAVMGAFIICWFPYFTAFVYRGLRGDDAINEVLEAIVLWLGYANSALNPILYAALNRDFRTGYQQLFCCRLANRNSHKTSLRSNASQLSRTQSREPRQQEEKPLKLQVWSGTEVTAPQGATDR

Adenosine receptor A3 = target: T3, Adenosine receptor A3 (Homo sapiens, UniProt P0DMS8)
T3 sequence (P0DMS8 whole entry): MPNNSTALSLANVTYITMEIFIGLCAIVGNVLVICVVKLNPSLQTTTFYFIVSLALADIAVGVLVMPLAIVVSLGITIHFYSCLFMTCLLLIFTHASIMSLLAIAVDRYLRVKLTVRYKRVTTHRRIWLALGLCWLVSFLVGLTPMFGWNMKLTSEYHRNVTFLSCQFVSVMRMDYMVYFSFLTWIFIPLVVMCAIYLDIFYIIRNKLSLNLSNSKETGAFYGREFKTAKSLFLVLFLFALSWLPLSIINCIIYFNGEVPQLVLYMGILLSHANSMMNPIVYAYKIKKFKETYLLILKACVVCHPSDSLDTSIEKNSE

Cannabinoid receptor 1 = Cannabinoid receptor 1 (Homo sapiens, UniProt P21554)
Chain of Cannabinoid receptor 1 (P21554 whole entry): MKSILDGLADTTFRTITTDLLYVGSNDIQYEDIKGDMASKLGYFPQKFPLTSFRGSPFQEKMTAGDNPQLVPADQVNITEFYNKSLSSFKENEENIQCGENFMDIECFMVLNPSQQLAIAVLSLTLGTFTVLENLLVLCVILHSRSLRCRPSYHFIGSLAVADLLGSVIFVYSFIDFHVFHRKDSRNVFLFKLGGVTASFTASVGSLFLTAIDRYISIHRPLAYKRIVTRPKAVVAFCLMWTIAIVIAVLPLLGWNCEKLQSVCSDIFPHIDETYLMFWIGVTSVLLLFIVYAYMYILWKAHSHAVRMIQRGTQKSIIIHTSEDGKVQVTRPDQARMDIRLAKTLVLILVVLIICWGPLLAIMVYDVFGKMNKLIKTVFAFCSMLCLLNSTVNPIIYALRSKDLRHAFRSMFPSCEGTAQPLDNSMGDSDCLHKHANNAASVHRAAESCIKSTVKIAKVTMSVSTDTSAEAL

[3] = target: T4, 5-hydroxytryptamine receptor 1A (Homo sapiens, UniProt P08908); type: functional, cell-based
T4 sequence (P08908 whole entry): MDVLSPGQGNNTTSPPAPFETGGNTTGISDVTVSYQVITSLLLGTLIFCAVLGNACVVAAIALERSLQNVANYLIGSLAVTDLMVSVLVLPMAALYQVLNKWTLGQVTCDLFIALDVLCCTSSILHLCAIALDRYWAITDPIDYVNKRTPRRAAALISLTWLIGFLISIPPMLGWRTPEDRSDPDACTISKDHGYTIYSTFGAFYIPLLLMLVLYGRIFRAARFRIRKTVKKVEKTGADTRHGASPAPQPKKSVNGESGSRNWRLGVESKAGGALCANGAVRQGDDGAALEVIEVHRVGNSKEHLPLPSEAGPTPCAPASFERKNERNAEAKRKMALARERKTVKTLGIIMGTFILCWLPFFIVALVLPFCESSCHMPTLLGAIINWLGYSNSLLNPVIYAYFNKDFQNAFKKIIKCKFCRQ

[4] = target: Growth hormone secretagogue receptor type 1 (Homo sapiens, UniProt Q92847)
Chain of Growth hormone secretagogue receptor type 1 (Q92847 whole entry): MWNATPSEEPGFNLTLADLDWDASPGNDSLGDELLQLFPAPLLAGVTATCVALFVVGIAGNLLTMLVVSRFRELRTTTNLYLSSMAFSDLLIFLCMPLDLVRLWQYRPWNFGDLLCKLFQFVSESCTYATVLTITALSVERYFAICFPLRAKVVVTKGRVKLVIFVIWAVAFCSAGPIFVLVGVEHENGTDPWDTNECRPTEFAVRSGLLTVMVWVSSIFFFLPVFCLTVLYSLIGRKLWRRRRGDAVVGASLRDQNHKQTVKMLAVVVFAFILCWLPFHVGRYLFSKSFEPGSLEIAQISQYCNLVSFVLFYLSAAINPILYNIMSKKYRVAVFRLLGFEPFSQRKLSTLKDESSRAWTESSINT

[5] = target: T5, Prostaglandin G/H synthase 1 (Rattus norvegicus, UniProt Q63921); type: functional
T5 sequence (Q63921 whole entry): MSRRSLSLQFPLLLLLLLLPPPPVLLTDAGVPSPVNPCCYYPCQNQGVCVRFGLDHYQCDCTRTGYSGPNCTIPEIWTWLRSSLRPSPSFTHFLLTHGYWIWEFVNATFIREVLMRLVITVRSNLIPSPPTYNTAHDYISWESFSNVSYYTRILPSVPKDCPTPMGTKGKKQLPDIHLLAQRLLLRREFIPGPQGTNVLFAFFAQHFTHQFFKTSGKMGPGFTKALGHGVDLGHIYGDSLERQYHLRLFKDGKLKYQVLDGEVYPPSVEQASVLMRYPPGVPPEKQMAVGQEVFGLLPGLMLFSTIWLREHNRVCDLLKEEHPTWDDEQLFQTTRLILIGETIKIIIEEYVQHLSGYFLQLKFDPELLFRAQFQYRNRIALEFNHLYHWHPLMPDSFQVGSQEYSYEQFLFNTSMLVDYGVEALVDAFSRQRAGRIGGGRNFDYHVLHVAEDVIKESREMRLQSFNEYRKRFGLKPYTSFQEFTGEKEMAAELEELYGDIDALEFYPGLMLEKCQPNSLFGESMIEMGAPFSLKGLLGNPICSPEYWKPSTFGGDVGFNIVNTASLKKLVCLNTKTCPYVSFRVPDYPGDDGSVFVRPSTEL

Adenosine receptor A1 = target: T6, Adenosine receptor A1 (Homo sapiens, UniProt P30542)
T6 sequence (P30542 whole entry): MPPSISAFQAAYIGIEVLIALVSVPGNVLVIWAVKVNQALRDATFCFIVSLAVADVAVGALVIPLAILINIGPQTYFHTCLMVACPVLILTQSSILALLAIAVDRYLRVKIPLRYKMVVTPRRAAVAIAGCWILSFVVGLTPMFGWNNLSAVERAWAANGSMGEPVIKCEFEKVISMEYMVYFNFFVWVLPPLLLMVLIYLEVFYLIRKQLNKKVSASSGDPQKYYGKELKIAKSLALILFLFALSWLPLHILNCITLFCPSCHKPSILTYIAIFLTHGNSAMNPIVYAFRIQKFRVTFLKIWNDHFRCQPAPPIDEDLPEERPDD
Further: assay procedure not described here.

Chain of cGMP-inhibited 3',5'-cyclic phosphodiesterase 3A (Q14432 whole entry): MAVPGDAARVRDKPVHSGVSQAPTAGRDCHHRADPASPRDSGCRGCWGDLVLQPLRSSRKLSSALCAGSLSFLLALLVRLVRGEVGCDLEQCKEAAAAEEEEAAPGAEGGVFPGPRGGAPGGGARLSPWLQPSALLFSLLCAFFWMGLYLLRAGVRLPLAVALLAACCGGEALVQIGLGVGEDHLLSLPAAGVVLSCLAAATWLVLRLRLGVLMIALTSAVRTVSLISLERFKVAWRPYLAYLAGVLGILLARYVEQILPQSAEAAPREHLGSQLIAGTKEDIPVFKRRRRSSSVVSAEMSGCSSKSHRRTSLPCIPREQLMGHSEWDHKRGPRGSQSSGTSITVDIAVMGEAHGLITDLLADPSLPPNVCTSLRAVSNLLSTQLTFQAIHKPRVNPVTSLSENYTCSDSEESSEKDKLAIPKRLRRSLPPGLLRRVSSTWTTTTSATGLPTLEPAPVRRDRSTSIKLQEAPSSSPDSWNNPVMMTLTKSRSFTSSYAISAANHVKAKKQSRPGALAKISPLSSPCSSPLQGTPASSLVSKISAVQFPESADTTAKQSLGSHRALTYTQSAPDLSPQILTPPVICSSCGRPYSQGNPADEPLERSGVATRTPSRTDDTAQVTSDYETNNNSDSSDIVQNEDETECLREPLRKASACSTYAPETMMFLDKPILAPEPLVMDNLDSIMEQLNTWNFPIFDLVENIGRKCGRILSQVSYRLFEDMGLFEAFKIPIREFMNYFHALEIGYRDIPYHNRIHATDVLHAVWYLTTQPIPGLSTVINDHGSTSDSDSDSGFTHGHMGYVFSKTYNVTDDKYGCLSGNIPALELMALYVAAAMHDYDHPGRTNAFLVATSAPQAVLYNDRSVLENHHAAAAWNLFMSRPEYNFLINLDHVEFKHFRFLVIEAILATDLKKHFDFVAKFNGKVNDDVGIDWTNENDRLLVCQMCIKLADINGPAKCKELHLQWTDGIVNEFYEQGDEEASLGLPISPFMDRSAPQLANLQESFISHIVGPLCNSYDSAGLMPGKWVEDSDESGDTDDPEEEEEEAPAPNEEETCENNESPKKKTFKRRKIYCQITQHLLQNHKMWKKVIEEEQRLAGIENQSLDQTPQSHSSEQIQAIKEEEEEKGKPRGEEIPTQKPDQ

Row | Structure (SMILES) | AC50 [1] | AC50 (B2 bradykinin receptor) | AC50 [2] | AC50 (Melanocortin receptor 4) | AC50 (Histamine H2 receptor) | AC50 (Adenosine receptor A3) | AC50 (Cannabinoid receptor 1) | AC50 [3] | AC50 [4] | AC50 [5] | AC50 (Adenosine receptor A1)
1 | COc1ccc2cccc(CCNC(C)=O)c2c1 [AGOMELATINE] | > 30 µM | > 30 µM | > 30 µM | > 30 µM | > 30 µM | > 30 µM | > 10 µM | > 30 µM | > 30 µM | > 30 µM | > 30 µM
2 | CC(=O)OCC(=O)[C@@]12OC3(CCCC3)O[C@@H]1C[C@H]1[C@@H]3CCC4=CC(=O)C=C[C@]4(C)[C@@]3(F)[C@@H](O)C[C@@]12C [AMCINONIDE] | > 30 µM | > 10 µM | > 10 µM | > 10 µM | > 10 µM | > 10 µM | 4.25 µM | > 10 µM | > 10 µM | > 10 µM | > 10 µM
3 | CC(C)C(=O)OCC(=O)[C@@]12O[C@H](C3CCCCC3)O[C@@H]1C[C@H]1[C@@H]3CCC4=CC(=O)C=C[C@]4(C)[C@H]3[C@@H](O)C[C@@]12C [CICLESONIDE] | > 30 µM | > 10 µM | > 10 µM | > 10 µM | > 10 µM | 4.2 µM | 12.1 µM | > 10 µM | > 10 µM | > 10 µM | > 30 µM
4 | CN1C(=O)CC(=O)N(c2ccccc2)c2cc(Cl)ccc21 [CLOBAZAM] | > 30 µM | > 10 µM | > 10 µM | > 10 µM | > 10 µM | > 10 µM | > 10 µM | > 10 µM | > 10 µM | > 10 µM | > 10 µM
5 | CCCCOc1cc(C(=O)NCCN(CC)CC)c2ccccc2n1 [DIBUCAINE] | > 30 µM | > 30 µM | > 10 µM | > 30 µM | > 10 µM | > 30 µM | > 10 µM | > 10 µM | 15.8 µM | > 10 µM | > 30 µM
6 | CC(=O)O[C@@]12CO[C@@H]1C[C@H](O)[C@@]1(C)C(=O)[C@H](O)C3=C(C)[C@@H](OC(=O)[C@H](O)[C@@H](NC(=O)OC(C)(C)C)c4ccccc4)C[C@@](O)([C@@H](OC(=O)c4ccccc4)[C@H]21)C3(C)C [DOCETAXEL ANHYDROUS] | > 30 µM | > 30 µM | > 30 µM | > 30 µM | > 30 µM | > 30 µM | > 30 µM | > 30 µM | > 30 µM | > 30 µM | > 30 µM
7 | C#CC1(OC(N)=O)CCCCC1 [ETHINAMATE] | > 30 µM | > 10 µM | > 10 µM | > 10 µM | > 10 µM | > 10 µM | > 10 µM | > 10 µM | > 10 µM | > 10 µM | > 10 µM
8 | CCNC(C)Cc1cccc(C(F)(F)F)c1 (stereo unspecified) [FENFLURAMINE] | > 30 µM | > 30 µM |  | > 30 µM |  | > 30 µM | > 10 µM |  | > 30 µM | > 30 µM | > 30 µM
9 | COc1c(N2CCNC(C)C2)c(F)cc2c(=O)c(C(=O)O)cn(C3CC3)c12 (stereo unspecified) [GATIFLOXACIN] | > 30 µM | > 10 µM | > 10 µM | > 10 µM | > 30 µM | > 10 µM | > 10 µM | > 10 µM | > 10 µM | > 10 µM | > 10 µM
10 | CCC1(C2=CCCCCC2)C(=O)NC(=O)NC1=O [HEPTABARBITAL] | > 30 µM | > 10 µM | > 10 µM | > 10 µM | > 10 µM | > 10 µM | > 10 µM | > 10 µM | > 10 µM | > 10 µM | > 10 µM
11 | CCCCCN(C)CCC(O)(P(=O)(O)O)P(=O)(O)O [IBANDRONIC ACID] | 1.9 µM | > 30 µM | > 30 µM | > 30 µM | > 30 µM | > 30 µM | > 30 µM | > 30 µM | > 30 µM | > 30 µM | > 30 µM
12 | O=C(O)CCCc1ccccc1 [PHENYLBUTANOIC ACID] | > 30 µM | > 30 µM | > 30 µM | > 10 µM |  | > 10 µM | > 30 µM | > 30 µM | > 10 µM | > 30 µM | > 10 µM
13 | C1COC(NC(C2CC2)C2CC2)=N1 [RILMENIDINE] | > 30 µM | > 30 µM | 2.6 µM | > 30 µM | > 10 µM | > 30 µM |  | > 30 µM | > 30 µM | > 30 µM | > 30 µM
14 | Cc1c(C(=O)Nc2ccc(N3C[C@@H](C)O[C@@H](C)C3)nc2)cccc1-c1ccc(OC(F)(F)F)cc1 [SONIDEGIB] | > 30 µM | > 30 µM |  | > 30 µM |  | > 30 µM | > 10 µM |  | > 30 µM | > 30 µM | > 30 µM
15 | CN1CCN(C(=O)OC2c3nccnc3C(=O)N2c2ccc(Cl)cn2)CC1 (stereo unspecified) [ZOPICLONE] | > 30 µM | > 30 µM | > 10 µM | > 30 µM | > 10 µM | 18.3 µM |  | > 10 µM | > 30 µM | > 30 µM | > 30 µM
